Like-named read-outs stand apart in the source and are kept apart here.
Tests used:
[1] = system: TRE3G-GFP reporter gene; test: TRE3G-GFP reporter gene activation in HCT116, dCas9 + MS2-FKBP*x2 (F36V) system, flow cytometry; type: cell-based, human; parameters: fold change, GFP: reference not given here; conditions: for fold change, GFP (Treated vs Non-Treated): FIG. 1E, 48 hours; for fold change, GFP: 48 hrs
[2] = system: CXCR4; test: CXCR4 mRNA activation in HCT116 stably expressing dCas9 and MS2-FKBP*x2, qRT-PCR; type: cell-based, human; conditions: for fold change, CXCR4 mRNA (CEM Treated vs Non-Treated): 48 hrs; for fold change, CXCR4 mRNA (CXCR4 gRNA vs NT gRNA): FIG. 3B; for fold change, CXCR4 mRNA (CXCR4 gRNA vs NT gRNA) / fold change, CXCR4 mRNA (washout vs AP1867 competition) / fold change, CXCR4 mRNA (Compare to 0 h): CEM207 25 nM; for fold change, CXCR4 mRNA (washout vs AP1867 competition): FIG. 3D; for fold change, CXCR4 mRNA (Compare to 0 h): FIG. 7A
In short: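 HCT116 cells stably expressing dCas9 and MS2-FKBP*x2 with CXCR4 gRNA were treated with CEMs (screen at 5 nM; 1–50 nM range). CXCR4 mRNA measured by one-step qRT-PCR after 48 h, or at 12–96 h in time course. Reversibility tested by washout after 24 h, optionally with 20 μM AP1867.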

[3] = system: CXCR4; test: CXCR4 mRNA activation in HCT116 stably expressing dCas9 and MS2-FKBPx2 (WT-FKBP), qRT-PCR; type: cell-based, human; conditions: FIG. 6, WT FKBP system, 48 hrs
[4] = system: TRE3G-GFP reporter gene; conditions: WT FKBP (MS2-FKBPx2), 48 hrs
Protocol: HCT116 cells were transfected with TRE3G-GFP, dCas9, MS2-FKPB*x2, and TRE3G gRNA or NT gRNA. After 48 hrs of 10 nM SLF*-CEMa treatment, flow cytometry was performed and mean fluorescent value was collected. […] TRE3G-GFP, dCas9, MS2-FKBP*2, TRE3G gRNA or NT gRNA were transfected into HCT116 cells. The media was changed to media with 5 nM CEM207 together with 0 nM, 50 nM, 500 nM or 5000 nM of AP1867, respectively. After 48 hrs chemical exposure, flow cytometry was performed and the mean fluorescent value was measured in each group of cells. […] FIGS. 5D and 5E are dose curves of CEMa molecules activating the GFP reporter gene in HCT116 cells using WT FKBP and dCas9 as DNA binding module. HCT116 cells were transfected with dCas9, MS2-FKBPx2, TRE3G-GFP constructs, along with TRE3G gRNA or NT gRNA. Cells were treated with different concentrations of CEMa molecules for 48 hrs before flow cytometry was conducted. […] Error bars represent the standard deviation.
To better understand the activity of SLF*-CEMa in the WT FKBP-based GFP reporter assay, a similar dose-response assay was conducted in HCT116 cells transfected with dCas9 and MS2-FKBPx2 (FIGS. 1D and 1E).
Flow cytometry. All flow cytometry experiments were performed with Attune Nxt as previously described. […] Significance was determined by Student's t-test.

Compound: CC[C@H](C(=O)N1CCCC[C@H]1C(=O)O[C@H](CCc1ccc(OC)c(OC)c1)c1cccc(OCC(=O)NCCOCCOCCNC(=O)C[C@@H]2N=C(c3ccc(Cl)cc3)c3c(sc(C)c3C)-n3c(C)nnc32)c1)c1cc(OC)c(OC)c(OC)c1 [CEM207, (R)-1-(3-((14-((S)-4-(4-Chlorophenyl)-2,3,9-trimethyl-6H-thieno[3,2-f][1,2,4]triazolo[4,3-a][1,4]diazepin-6-yl)-2,13-dioxo-6,9-dioxa-3,12-diazatetradecyl)oxy)phenyl)-3-(3,4-dimethoxyphenyl) propyl(S)-1-((S)-2-(3,4,5-trimethoxyphenyl)butanoyl) piperidine-2-carboxylate]
- fold change, GFP (Treated vs Non-Treated) ([1]; TRE3G gRNA, 0.25 nM): 2.0 fold
- fold change, GFP (Treated vs Non-Treated) ([1]; TRE3G gRNA, 0.5 nM): 9.1 fold
- fold change, GFP (Treated vs Non-Treated) ([1]; TRE3G gRNA, 0.75 nM): 11.5 fold
- fold change, GFP (Treated vs Non-Treated) ([1]; TRE3G gRNA, 1 nM): 12.8 fold
- fold change, GFP (Treated vs Non-Treated) ([1]; TRE3G gRNA, 2.5 nM): 20.6 fold
- fold change, GFP (Treated vs Non-Treated) ([1]; TRE3G gRNA, 5 nM): 24.0 fold
- fold change, GFP (Treated vs Non-Treated) ([1]; TRE3G gRNA, 7.5 nM): 22.5 fold
- fold change, GFP (Treated vs Non-Treated) ([1]; TRE3G gRNA, 10 nM): 21.4 fold
- fold change, GFP (Treated vs Non-Treated) ([1]; TRE3G gRNA, 25 nM): 21.5 fold
- fold change, GFP (Treated vs Non-Treated) ([1]; TRE3G gRNA, 50 nM): 22.3 fold
- fold change, GFP (Treated vs Non-Treated) ([1]; TRE3G gRNA, 75 nM): 22.5 fold
- fold change, GFP (Treated vs Non-Treated) ([1]; TRE3G gRNA, 100 nM): 21.9 fold
- fold change, GFP ([1]; FIG. 5A, NT gRNA, 10 nM): 0.3 fold
- fold change, GFP ([1]; FIG. 5A, TRE3G gRNA, 10 nM): 12.0 fold
- fold change, GFP ([1]; FIG. 5C, NT gRNA, 0.25 nM): 1.1 fold
- fold change, GFP ([1]; FIG. 5C, NT gRNA, 0.5 nM): 1.1 fold
- fold change, GFP ([1]; FIG. 5C, NT gRNA, 0.75 nM): 1.1 fold
- fold change, GFP ([1]; FIG. 5C, NT gRNA, 1 nM): 1.1 fold
- fold change, GFP ([1]; FIG. 5C, NT gRNA, 2.5 nM): 1.2 fold
- fold change, GFP ([1]; FIG. 5C, NT gRNA, 5 nM): 1.5 fold
- fold change, GFP ([1]; FIG. 5C, NT gRNA, 7.5 nM): 1.5 fold
- fold change, GFP ([1]; FIG. 5C, NT gRNA, 10 nM): 1.4 fold
- fold change, GFP ([1]; FIG. 5C, NT gRNA, 25 nM): 1.6 fold
- fold change, GFP ([1]; FIG. 5C, NT gRNA, 50 nM): 1.6 fold
- fold change, GFP ([1]; FIG. 5C, NT gRNA, 75 nM): 1.5 fold
- fold change, GFP ([1]; FIG. 5C, NT gRNA, 100 nM): 1.5 fold
- fold change, CXCR4 mRNA (CEM Treated vs Non-Treated) ([2]; FIG. 2D, CXCR4 gRNA, 0.5 nM): 2.5 fold
- fold change, CXCR4 mRNA (CEM Treated vs Non-Treated) ([2]; FIG. 2D, CXCR4 gRNA, 1 nM): 7.4 fold
- fold change, CXCR4 mRNA (CEM Treated vs Non-Treated) ([2]; FIG. 2D, CXCR4 gRNA, 5 nM): 28.2 fold
- fold change, CXCR4 mRNA (CEM Treated vs Non-Treated) ([2]; FIG. 2D, CXCR4 gRNA, 25 nM): 48.2 fold
- fold change, CXCR4 mRNA (CEM Treated vs Non-Treated) ([2]; FIG. 2D, CXCR4 gRNA, 50 nM): 34.6 fold
- fold change, CXCR4 mRNA (CEM Treated vs Non-Treated) ([2]; FIG. 2D, NT gRNA, 0.5 nM): 1.17 fold
- fold change, CXCR4 mRNA (CEM Treated vs Non-Treated) ([2]; FIG. 2D, NT gRNA, 1 nM): 0.77 fold
- fold change, CXCR4 mRNA (CEM Treated vs Non-Treated) ([2]; FIG. 2D, NT gRNA, 5 nM): 1.47 fold
- fold change, CXCR4 mRNA (CEM Treated vs Non-Treated) ([2]; FIG. 2D, NT gRNA, 25 nM): 2.21 fold
- fold change, CXCR4 mRNA (CEM Treated vs Non-Treated) ([2]; FIG. 2D, NT gRNA, 50 nM): 1.88 fold
- CXCR4 activation compared to dCas9-p300 ([2]; FIG. 2D, concentrations above 5 nM): higher CXCR4 activation
- fold change, CXCR4 mRNA (CXCR4 gRNA vs NT gRNA) ([2]; 24 h): 18.6 fold
- fold change, CXCR4 mRNA (CXCR4 gRNA vs NT gRNA) ([2]; 48 h): 13.1 fold
- fold change, CXCR4 mRNA (CXCR4 gRNA vs NT gRNA) ([2]; 48 h AP1867 (washout with 20 μM AP1867 after 24 hrs)): 8.3 fold
- fold change, CXCR4 mRNA (CXCR4 gRNA vs NT gRNA) ([2]; 48 h wash (media washout after 24 hrs)): 10.5 fold
- fold change, CXCR4 mRNA (CXCR4 gRNA vs NT gRNA) ([2]; 72 h): 6.8 fold
- fold change, CXCR4 mRNA (CXCR4 gRNA vs NT gRNA) ([2]; 72 h AP1867 (washout with 20 μM AP1867 after 24 hrs)): 4.2 fold
- fold change, CXCR4 mRNA (CXCR4 gRNA vs NT gRNA) ([2]; 72 h wash (media washout after 24 hrs)): 5.4 fold
- fold change, CXCR4 mRNA (CXCR4 gRNA vs NT gRNA) ([2]; 96 h AP1867 (washout with 20 μM AP1867 after 24 hrs)): 2.1 fold
- fold change, CXCR4 mRNA (CXCR4 gRNA vs NT gRNA) ([2]; 96 h wash (media washout after 24 hrs)): 4.3 fold
- fold change, CXCR4 mRNA (washout vs AP1867 competition) ([2]; 48 h): 1.2 fold
- fold change, CXCR4 mRNA (washout vs AP1867 competition) ([2]; 72 h): 2.4 fold
- fold change, CXCR4 mRNA (washout vs AP1867 competition) ([2]; 96 h): 0.57 fold
- fold change, CXCR4 mRNA (Compare to 0 h) ([2]; NT gRNA, 12 h): 0.1 fold
- fold change, CXCR4 mRNA (Compare to 0 h) ([2]; NT gRNA, 24 h): 0.6 fold
- fold change, CXCR4 mRNA (Compare to 0 h) ([2]; NT gRNA, 48 h): 0.7 fold
- fold change, CXCR4 mRNA (Compare to 0 h) ([2]; NT gRNA, 48 h AP1867 (washout with 20 μM AP1867 after 24 hrs)): 0.7 fold
- fold change, CXCR4 mRNA (Compare to 0 h) ([2]; NT gRNA, 48 h wash (media washout after 24 hrs)): 0.8 fold
- fold change, CXCR4 mRNA (Compare to 0 h) ([2]; NT gRNA, 72 h): 0.6 fold
- fold change, CXCR4 mRNA (Compare to 0 h) ([2]; NT gRNA, 72 h AP1867 (washout with 20 μM AP1867 after 24 hrs)): 0.3 fold
- fold change, CXCR4 mRNA (Compare to 0 h) ([2]; NT gRNA, 72 h wash (media washout after 24 hrs)): 0.4 fold
- fold change, CXCR4 mRNA (Compare to 0 h) ([2]; NT gRNA, 96 h): 0.5 fold
- fold change, CXCR4 mRNA (Compare to 0 h) ([2]; NT gRNA, 96 h AP1867 (washout with 20 μM AP1867 after 24 hrs)): 0.6 fold
- fold change, CXCR4 mRNA (Compare to 0 h) ([2]; NT gRNA, 96 h wash (media washout after 24 hrs)): 0.6 fold
- CXCR4 mRNA expression after CEM washout in comparison to cells continuously treated ([2]; FIGS. 3C and 3D, CEM203 50 nM or CEM207 25 nM for 24 hours, then media exchange, all time points): significantly lowered CXCR4 mRNA expression
- time point of highest (peak) CXCR4 mRNA activation ([2]; time course 12, 24, 48, 72, 96 hrs, CXCR4 gRNA): 24 h
- fold change, CXCR4 mRNA (CXCR4 gRNA vs NT gRNA) ([3]; 50 nM): 4.2 fold
- fold change, CXCR4 mRNA (CXCR4 gRNA vs NT gRNA) ([3]; 200 nM): 9.1 fold
- fold change, GFP (Treated vs Non-Treated) ([4]; FIG. 5D, 10 nM): 1.9 fold
- fold change, GFP (Treated vs Non-Treated) ([4]; FIG. 5D, 25 nM): 6.5 fold
- fold change, GFP (Treated vs Non-Treated) ([4]; FIG. 5D, 50 nM): 17.4 fold
- fold change, GFP (Treated vs Non-Treated) ([4]; FIG. 5D, 100 nM): 20.8 fold
- fold change, GFP (Treated vs Non-Treated) ([4]; FIG. 5D, 200 nM): 24.0 fold
- fold change, GFP (Treated vs Non-Treated) ([4]; FIG. 5D, 400 nM): 27.2 fold
- fold change, GFP (Treated vs Non-Treated) ([4]; FIG. 5E, 10 nM): 1.1 fold
- fold change, GFP (Treated vs Non-Treated) ([4]; FIG. 5E, 25 nM): 1.1 fold
- fold change, GFP (Treated vs Non-Treated) ([4]; FIG. 5E, 50 nM): 1.0 fold
- fold change, GFP (Treated vs Non-Treated) ([4]; FIG. 5E, 100 nM): 1.1 fold
- fold change, GFP (Treated vs Non-Treated) ([4]; FIG. 5E, 200 nM): 1.2 fold
- fold change, GFP (Treated vs Non-Treated) ([4]; FIG. 5E, 400 nM): 1.3 fold

Source: patent publication US20250177566A1, “USE OF CHEMICAL EPIGENETIC MODIFIERS TO MODULATE GENE EXPRESSION” (The University of North Carolina at Chapel Hill, priority 2022, published 2025)
